# In publication PMC12373846, “Hemoglobin as a pseudoperoxidase and drug target for oxidative stress-related diseases” (Signal Transduction and Targeted Therapy, 2025):
# “And” between values parts separate entries of the source, which are not always exact repeats. Equal values may be shown once. Read-outs that look alike come from different tables or passages of the source.
# Columns and labels:
# [1] = In vivo pharmacokinetics (IV, PO); conditions: male, ICR, mouse, plasma, mice
# Description: In vivo pharmacokinetic studies of KDS12025 were conducted by Medicilon (Shanghai, China). For both intravenous (IV) and oral (PO) administration, the compound was dissolved in a vehicle consisting of 10% Solutol and 90% distilled water. Male ICR mice (n = 4 per group) were fasted overnight and allowed access to food 4 h post-dosing, with water provided ad libitum. Following administration, blood samples (0.03 mL per time point) were collected via the submandibular vein. Samples were transferred to tubes containing sodium heparin and centrifuged at 6,800 x g for 6 min at 2–8 °C. Plasma was separated, transferred to Eppendorf tubes, and internal standard (IS: 10 ng/mL verapamil) was added. After vortexing for 1 min and centrifugation at 18,000 x g for 7 min, the supernatant was analyzed by liquid chromatography–tandem mass spectrometry (LC-MS/MS; TQ5500 Triple Quad, SCIEX). Pharmacokinetic parameters including area under the curve (AUC0–t and AUC0–∞), elimination half-life (t1/2), maximum plasma concentration (Cmax), and time to reach maximum concentration (Tmax) were calculated using noncompartmental analysis in Phoenix WinNonlin 7.0 (Pharsight, USA), an FDA-certified pharmacokinetic software.
# aged C57BL/6J mice [2] = test: Open field locomotor activity, aging mice; format: in vivo, mouse; conditions: 26 month
# aged C57BL/6J mice [3] = test: Survival of aging mice; format: in vivo, mouse
# Description: Aged 1-year-old C57BL/6J animals were purchased from Janvier Labs (France) and quarantined in the IBS Animal Facility for 2 weeks before the experiment. The animals were weighed, and their water consumption (in grams) was monitored for 3 days before the appropriate drug concentration was calculated for each dose group. The animals were randomly assigned to the drug/control and dose groups. […] The drug concentration (in water) was modified on the basis of changes in animal weight and corresponding water consumption every 3 months. Basal body temperature and body weight were monitored every 2 weeks. The care and handling of the animals were performed in accordance with the guidelines of the Institutional Animal Care and Use Committee of IBS (Daejeon, South Korea).
# A53T mice = test: Rotarod test, A53T PD mouse model; format: in vivo
# Description: Stereotaxic injections were performed to deliver the AAV-CMV-A53T virus or PBS (control) into the right SNpc (AP, −3.2 mm; ML, −1.3 mm; DV, −4.0 mm from the bregma) of the mice. The injections were administered at a rate of 0.2 μl/min, with a total volume of 1 μl. The procedure was conducted under general anesthesia induced by 1% isoflurane.
# The mice were habituated to the rotarod at speeds of 5, 10, and 15 rpm. Motor coordination and endurance were tested at 20 rpm for a maximum of 3 min. The latency to fall was recorded during the test to evaluate motor deficits associated with PD and the therapeutic effects of KDS12025.
# [4] = molecular target: T1, mGluR5 (h) (agonist radioligand) (Homo sapiens, UniProt P41594); test: SafetyScreen87 panel; conditions: 1.0E-06 M, read-out: % Inhibition of Control Specific Binding (1st, 2nd, Mean)
# T1 construct: purchased DiscoverX KINOMEscan scanEDGE; Eurofins Cerep SafetyScreen87
# T1 sequence (P41594 21-1212): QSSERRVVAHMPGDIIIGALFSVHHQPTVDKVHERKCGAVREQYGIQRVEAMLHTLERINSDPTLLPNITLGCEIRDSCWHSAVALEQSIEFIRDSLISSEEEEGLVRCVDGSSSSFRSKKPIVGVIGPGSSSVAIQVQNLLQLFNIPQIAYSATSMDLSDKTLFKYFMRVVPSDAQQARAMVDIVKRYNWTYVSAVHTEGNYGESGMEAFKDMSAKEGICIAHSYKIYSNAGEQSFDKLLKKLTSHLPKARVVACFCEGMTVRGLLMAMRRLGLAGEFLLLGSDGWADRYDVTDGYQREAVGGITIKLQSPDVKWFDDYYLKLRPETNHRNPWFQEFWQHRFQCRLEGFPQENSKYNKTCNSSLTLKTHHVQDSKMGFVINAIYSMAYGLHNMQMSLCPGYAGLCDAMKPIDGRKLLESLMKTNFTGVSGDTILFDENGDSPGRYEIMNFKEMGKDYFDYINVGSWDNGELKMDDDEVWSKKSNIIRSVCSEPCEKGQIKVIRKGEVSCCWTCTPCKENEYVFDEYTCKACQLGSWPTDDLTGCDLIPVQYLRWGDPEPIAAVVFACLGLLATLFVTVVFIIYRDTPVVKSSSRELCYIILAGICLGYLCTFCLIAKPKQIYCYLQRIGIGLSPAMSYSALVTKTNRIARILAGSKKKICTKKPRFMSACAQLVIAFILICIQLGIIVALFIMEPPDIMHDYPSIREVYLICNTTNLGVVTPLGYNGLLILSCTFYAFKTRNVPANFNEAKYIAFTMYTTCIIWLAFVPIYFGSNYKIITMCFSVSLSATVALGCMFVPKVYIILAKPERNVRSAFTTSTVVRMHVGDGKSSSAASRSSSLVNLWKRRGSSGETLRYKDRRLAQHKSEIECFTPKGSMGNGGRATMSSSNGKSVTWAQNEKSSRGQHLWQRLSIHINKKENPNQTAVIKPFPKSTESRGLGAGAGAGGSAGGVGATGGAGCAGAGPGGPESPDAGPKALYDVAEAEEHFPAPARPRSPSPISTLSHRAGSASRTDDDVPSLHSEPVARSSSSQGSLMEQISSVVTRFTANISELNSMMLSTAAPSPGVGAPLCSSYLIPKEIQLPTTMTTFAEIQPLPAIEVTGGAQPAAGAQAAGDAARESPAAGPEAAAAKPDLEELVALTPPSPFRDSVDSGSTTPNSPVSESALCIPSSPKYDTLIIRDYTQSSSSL
# Outline: (§1)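 Competition binding at the kinase active site (scanEDGE) supplied the kinase data. The Delta SafetyScreen87 safety panel supplied the receptor and enzyme data.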
# [5] = system: Na+ channel (site 2) (antagonist radioligand); test: SafetyScreen87 panel; conditions: 1.0E-06 M, read-out: % Inhibition of Control Specific Binding (1st, 2nd, Mean)
# Outline: as §1
smiles,measurement,setting,value
"CNc1ccc(NCCc2ccccc2OC)cc1.Cl [KDS12025, N^1-(2-methoxyphenethyl)-N^4-methylbenzene-1,4-diamine hydrochloride salt]",bioavailability,"[1]; 5 mg/kg IV and 30 mg/kg PO, read-out: F (bioavailability)",87.4%
same,AUC,"[1]; 5 mg/kg IV, read-out: AUCall, IV",687 ± 118 ng·h/mL
same,half-life,"[1]; 5 mg/kg IV, read-out: t1/2, IV (converted)",57.6 ± 5.4 min
same,AUC,"[1]; 30 mg/kg PO, read-out: AUCall, PO",3600 ± 662 ng·h/mL
same,Cmax,"[1]; cell spans IV and PO heads, probably 30 mg/kg PO",2310 ± 344 ng/mL
same,distance traveled (Fig. 7d),aged C57BL/6J mice [2]; 0.1mpk,3262±203
same,locomotor velocity (Fig. 7c),aged C57BL/6J mice [2]; 0.1mpk,5.42±0.34
same,distance traveled (Fig. 7d),aged C57BL/6J mice [2]; 1mpk,3600±561
same,locomotor velocity (Fig. 7c),aged C57BL/6J mice [2]; 1mpk,6.24±0.6
same,increase of median survival,aged C57BL/6J mice [3]; 0.1 and 1 mg/kg/day ad libitum from 14 months,~ 14%
same,adverse effects during chronic administration,"aged C57BL/6J mice [3]; 22-month administration, 0.1 and 1 mg/kg/day",no apparent adverse effects were observed
same,female mice surviving at 31 months,"aged C57BL/6J mice [3]; KDS12025 groups, when all control mice had died",46.7%
same,rotarod latency to fall,"A53T mice; A53T+KDS12025 1 mg/kg/day ad libitum, Fig. 4h","Control (225.3±30.6, n=6), A53T (93.8±19.6, n=7), A53T+KDS12025 (223.8±23.5, n=8) One-way ANOVA with Tukey's multiple comparisons test, F(2,18) = 9.52, p = 0.002 Control vs. A53T, p = 0.005; Control vs. A53T+KDS12025, p > 0.99; A53T vs. A53T+KDS12025, p = 0.003"
same,rotarod latency to fall,"A53T mice; A53T+shHbβ::CaMKII+KDS12025, Fig. 6q",139.0±51.1
same,rotarod latency to fall,"A53T mice; A53T+shHbβ::GFAP+KDS12025, Fig. 6q",117.0±63.6
same,activity,[4]; mean,115%
same,activity,[4],114% and 116%
same,activity,[5]; mean,74.5%
same,activity,[5],83.6% and 65.5%
